From a melting point compilation (Tetko et al.; mined from patent text by program, amines drawn as free bases though some values may be those of a salt)

Row | melting point | Structure (SMILES)
1 | 192 to 194 °C | COCc1c(C)ccc(C(O)=S)c1C
2 | 106 to 108 °C | CSC(CC(=O)O)c1ccc(C(F)(F)F)cc1 (configuration not stated)
3 | 171 to 173 °C | CCCc1c([C@@H]2C[C@H]2c2ccccc2)oc2ccc(C(=O)OC)cc2c1=O (relative stereo)
4 | 134 to 136 °C | COc1ccc(CN(CC(=O)NO)S(=O)(=O)c2ccc(OC)cc2)cc1
5 | 94 to 95 °C | CCCCC(CC)n1c(CC)nc2c1C(=O)N(C)CN2c1ccc(Cl)cc1Cl (configuration not stated)
6 | 139 to 141 °C | CCOP(=O)(COCCOn1cnc2c(N)nc(N)nc21)OCC
7 | > 320 °C | CC(=O)CC(=S)NCC(=O)N1CCC[C@H]1C(=O)O
8 | 240 to 242 °C | O=C(CN1CCOCC1)N1CCN(Cc2ccc3c(c2)-c2[nH]nc(-c4ccsc4)c2C3)CC1
9 | 164 to 165 °C | O=C(O)c1ccc(-c2nc(-c3ccc(C(F)(F)F)cc3)cs2)cc1
10 | 70 to 71.5 °C | O=C(O)CCCCCCCCCCCCCCCCCCI
11 | 197 to 198 °C | Cn1cc(C(F)(F)F)c(C(=O)O)c1Cl
12 | 48 °C | CCCCCCCCCCCCSCCOc1ccc(CCC(=O)OC)cc1
13 | 54 to 56.5 °C | CC(S)CNC(=O)OCc1ccc([N+](=O)[O-])cc1 (configuration not stated)
14 | 157 to 158 °C | Cc1oc(C=Cc2cccc(C(F)(F)F)c2)nc1CC(=O)O
15 | 300 °C | Nc1cc2nc(C(=O)O)c(=O)[nH]c2cc1[N+](=O)[O-]
16 | 90 to 92 °C | Cc1cc(Cl)cnc1NCCCNc1ncc(Cc2ccncc2)c(=O)[nH]1
17 | 268 to 271 °C | Cc1ccc2[nH]c(=O)n(C(C)(C)C(=O)O)c(=O)c2c1

Row | melting point | Structure (SMILES)
18 | 68 to 69 °C | CCOC(=O)C(C)(C)Sc1ccc(O)cc1
19 | 124 to 125 °C | CCOC(=O)[C@H](Cc1cc(Cl)c(N)c(Cl)c1)NC(=O)C(F)(F)F
20 | 244 to 245 °C | Cc1c(-c2ccc(Cl)cc2)nc2ccc(C(=O)NC(Cc3ccc(OCc4ccccc4)cc3)C(=O)O)cn12 (configuration not stated)
21 | 106 to 110 °C | O=C(O)[C@H]1CN(c2ccc(C3=CCSCC3)c(F)c2)C(=O)O1
22 | 71 to 73 °C | CCCCCCCCCCCCCCCC(=O)OCC(O)COC(=O)CCCCCCCCCCCCCCC
23 | 174 to 176 °C | COc1ccc(/C=N/Nc2ccccc2C(=O)O)cc1OC1CCCC1
24 | 144 to 147 °C | NC(=O)CCN1CCC(c2noc3cc(F)ccc23)CC1
25 | 162 to 164 °C | O=C(O)CCc1ccc([N+](=O)[O-])cc1
26 | 160 to 161 °C | CCC(C)CNC(=O)c1cc(NC)cc(C(=O)NCC(C)CC)c1 (configuration not stated)
27 | 202 to 204 °C | COC(=O)c1ccc(OCCCOc2c(C)c(C)c(C(=O)Oc3c(C)c(C)c(C(N)=O)c(OC)c3C)c(OC)c2C)cc1
28 | 173 to 179 °C | CC(C)(C)COC(=O)C(C#N)=Cc1cc(O)c(O)c([N+](=O)[O-])c1
29 | 102 to 104 °C | C[C@H](O)C(=O)Nc1ccccn1
30 | 192 to 193 °C | COCCN1CCN(CCc2ccccc2Nc2ncnc3[nH]cc(C(=O)c4ccccc4)c23)CC1
31 | 168 to 170 °C | N=C(N)Nc1ncc(CO)s1
32 | 251 to 252 °C | O=C(O)CCNc1ccc2c(C(=O)NCC34CC5CC(CC(C5)C3)C4)c(Cl)ccc2n1
33 | 153 to 154 °C | CCCc1cccc2[nH]c(C(=O)OCC)cc(=O)c12
34 | 234 to 236 °C | CN(C)c1ccc(-c2ccccc2C(=O)O)nc1

Continued, compound first:

Row | Structure (SMILES) | melting point
35 | CC(C)C(=O)NC(c1ccc(Br)cc1)C(F)(F)F (configuration not stated) | 176 to 178 °C
36 | CC(=O)N1CC(CCN2CC=C(c3c[nH]c4cc(Cl)ccc34)CC2)c2cc(F)ccc21 (configuration not stated) | 183 to 185 °C
37 | CNS(=O)(=O)/C=C/c1ccc2[nH]cc(C3CCN(C)CC3)c2c1 | 190 to 192 °C
38 | Nc1cccnc1Nc1ccccc1C(=O)c1ccc(Cl)cc1 | 145 to 146 °C
39 | CN(C)C=NS(=O)(=O)c1cc(CCNC(=O)C(F)(F)F)ccc1-c1ccco1 | 150 °C
40 | CNC(=S)NCC1CN(c2ccc(N3CCOCC3)c(F)c2)C(=O)O1 (configuration not stated) | 158 to 160 °C
41 | Cn1cc(C(=O)Nc2cc(Cl)ccc2-c2cccc(Cl)c2)c(C(F)(Cl)Cl)n1 | 145 to 146 °C
42 | COCCOc1cc2ncnc(Nc3cc(OC)c(Br)cc3OC)c2cc1OC | 217 to 221 °C
43 | O=C1CCC(N2C(=O)c3cccc(NC(=O)c4cccc(C(F)(F)F)c4)c3C2=O)C(=O)N1 (configuration not stated) | 257 to 259 °C
44 | CN[C@@H]1CN(C(=O)c2nn(C)c3ccccc23)C[C@@H]1C (relative stereo) | 89 to 91 °C
45 | CN(O)C(=O)Nc1c(C(=O)c2cccc(Cl)c2)[nH]c2cc(Cl)ccc12 | 205 to 206 °C
46 | O=C1C[N+]([O-])=C(c2ccccc2F)c2cc(Cl)ccc2N1CC(O)CO (configuration not stated) | 165 to 166 °C
47 | Cc1ccnc(-c2cccc([N+](=O)[O-])c2)c1 | 80 to 82 °C
48 | O=[N+]([O-])C=C1SCCN1Cc1ccc(Cl)nc1 | 177 to 179 °C
49 | COc1ccc(C(=O)Nc2ccc(C(C)(C)C#N)cc2)cc1 | 169 to 171 °C
50 | CCOc1cc(OC(C)C)ccc1-c1nc(-c2ccc(OC(C)C)cc2O)nc(-c2ccc(OC(C)C)cc2O)n1 | 163 to 167 °C
51 | Nc1ccc(Oc2c(Cl)cc(C(F)(F)F)cc2Cl)cc1S(=O)(=O)c1cc[nH]n1 | 232 °C
52 | O=C(C=C1C(=O)N(c2ccccc2)C(=O)N1c1ccccc1)Nc1ccccc1 | 214 °C
53 | COc1cccc(C=O)c1OCc1cccc2ccccc12 | 98 to 99 °C
54 | CC1=NNC(=O)N(N)C1 | 117 to 119 °C
55 | COc1ccc(-n2cnc3ccc(-c4nnc(NCc5cccc(F)c5)o4)cc32)cc1 | 164 to 166 °C
56 | CN1CCCC(c2cc3ccccc3c(=O)[nH]2)C1 (configuration not stated) | 155 to 156 °C
57 | CNCc1noc(-c2cc(C(C)(C)C)c(O)c(C(C)(C)C)c2)n1 | 120 to 122 °C

Row | Structure (SMILES) | melting point
58 | O=C(c1cccs1)c1cnn2c(-c3cccc(OC4CCCC4)c3)ccnc12 | 135 to 138 °C
59 | CN1Cc2c(-c3noc(CNCc4ccccc4)n3)ncn2-c2ccccc2C1=O | 88 to 92 °C
60 | Cc1nc(-n2cnn(Cc3ccc(F)cc3)c2=O)sc1C(=O)NCc1cnn(C)c1 | 205 to 206 °C
61 | O=C(NCc1ccc(Cl)cc1)c1cn(Cc2ccccc2)c2sc(CN3CCOCC3)cc2c1=O | 225 to 226 °C
62 | C(=C\c1nc(COc2ccc(CCn3cncn3)cc2)co1)/c1ccccc1 | 136 to 137 °C
63 | CN1c2ccncc2NCc2cccn21 | 135 to 140 °C
64 | O=c1cc(CCN2CCC(c3c[nH]c4ccccc34)CC2)c2ccccc2[nH]1 | 259 to 260 °C
65 | CC1(C)CCN(C(=O)NCc2ccccc2)c2cc(C#N)ccc21 | 114 to 115 °C
66 | COc1ccc2c(c1)OC(c1ccc(Cl)cc1)CC2=O (configuration not stated) | 97 to 99 °C
67 | Nc1ncnc2c1c(-c1cccc3[nH]ncc13)nn2Cc1oc2ccccc2c(=O)c1-c1ccccc1 | 248 to 252 °C
68 | O=C(c1ccccc1)c1cc2c(s1)SCCc1cc(=O)n(-c3ccc(Cl)cc3)nc1-2 | 180 to 182 °C
69 | CNC12CC(O)CCC1CCc1ccccc12 (configuration not stated) | 141 to 143 °C
70 | COc1cc2c(cc1O)C(C1(c3ccccc3Br)CCC1)N(C)CC2 (configuration not stated) | 48 to 51 °C
71 | O=S1(=O)N=CN(C2CCCC2)c2cc(Cl)c(Cl)cc21 | 189 to 191 °C
72 | CNc1noc(C(C)c2cccc(C(=O)c3ccccc3)c2)n1 (configuration not stated) | 100 to 101 °C
73 | CN1Cc2cccc(SCc3ccccc3)c2S1(=O)=O | 119 to 122 °C
74 | CC(C)(N)c1ccc(C(=O)Nc2cn3cc(Cl)ccc3n2)cc1 | 235 to 237 °C
75 | Cc1ccc(C(=O)C=CN(C)C)s1 | 118 to 121 °C
76 | N#Cc1c(N2CCN(C(=O)C3CCCS3)CC2)c2ccccc2n(Cc2ccc(F)cc2)c1=O (configuration not stated) | 133 to 140 °C
77 | Oc1nc2cc(Cl)c3nc(C(F)(F)F)[nH]c3c2nc1O | > 300 °C
78 | Cc1nc(N)nc(N)c1-c1cc(N)ccc1Cl | 117 to 121 °C
79 | CCc1nccn1Cc1ccc2c(c1)-c1[nH]nc(-c3ccsc3)c1C2 | 238 to 239 °C
80 | COc1cc(C(=O)C(C#N)C#N)cc(OC)c1OC | 158 to 160 °C

Row | Structure (SMILES) | melting point
81 | O=C(Nc1ccc(-n2nc(C(F)(F)F)cc2C(F)(F)F)cc1)C1=CCCC1 | 174 to 175 °C
82 | C1=Nc2cccc(-c3ccoc3)c2C12COc1cc3c(cc12)OCO3 (configuration not stated) | 270 to 272 °C
83 | COc1ccc(-c2c(SCc3ccncc3)oc3cc(OC)ccc3c2=O)cc1 | 140 to 141 °C
84 | COc1ccc(C(=CC#N)c2cc(OC)c(OC)c(OC)c2)cc1N | 97 to 99 °C
85 | CC(C)(O)Cn1cnc2c(N)nc3ccc(Br)cc3c21 | 197 to 198 °C
86 | COC(=O)c1sc(C(F)(F)F)cc1OC | 78 to 79 °C
87 | CC(=O)n1nc(-c2ccccc2)cc1Sc1ccccc1 | 83 to 84.5 °C
88 | CC(=O)O[C@H]1C[C@@H](n2ncc(Cl)c(Cl)c2=O)[C@H](O)[C@@H]1O (racemic) | 119 to 122 °C
89 | CN(Cc1cccc2c1CN(C1CCC(=O)NC1=O)C2=O)C(=O)Nc1cc(Cl)cc(Cl)c1 (configuration not stated) | 285 to 287 °C
90 | Cc1ccc(O)c(C(=O)Nc2cc(Cl)cc(Cl)c2)c1 | 216 to 217 °C
91 | COc1ccnc2c(S(=O)c3nc4ccccc4[nH]3)cccc12 (configuration not stated) | 178 to 179 °C
92 | COc1cccc(CNC(=O)[C@@H]2CCCN(c3cccc4c3C(=O)N(Cc3ccncc3)C4=O)C2)c1OC | 199 to 200 °C
93 | C=CCc1c2n(c3ccccc13)C(=O)C(Cc1nc[nH]c1C)CC2 (configuration not stated) | 215 to 217 °C
94 | COc1cc(Cl)cc(Cn2c(=O)cc(C(F)(F)F)n(C)c2=O)c1Cl | 117 to 123 °C
95 | O=C(Nc1ccc(Oc2ccnc(NCC3OCCO3)n2)c2ccccc12)c1cc(F)cc(N2CCOCC2)c1 | 122 to 124 °C
96 | CNC(=S)Nc1cc(F)ccc1N1CCOCC1 | 145 to 148 °C
97 | O=C1c2c(c(=O)n3nc(-c4ccccc4)cc3n2Cc2ccccc2)CN1Cc1ccccc1 | 232 to 234 °C
98 | FC(F)(F)c1ccccc1OCCCc1cn(C(c2ccccc2)(c2ccccc2)c2ccccc2)cn1 | 204 to 208 °C
99 | Cn1c(-c2nnc(N)s2)cnc1[N+](=O)[O-] | 263 to 265 °C
100 | CC(O)(C#CCCO)c1ccc(-c2ccc(Cl)cc2)cc1 (configuration not stated) | 105 °C
101 | CSc1ccc(C=O)cc1Cl | 58 to 59 °C
102 | CSC1=Nc2ccccc2N2CCN(c3ccccc3)CCN12 | 125 to 127 °C
